Measurements published in patent US20260248809A1, “ESTRADIOL PRODRUGS AND METHODS OF USE THEREOF” (UNIVERSITY OF MARYLAND, BALTIMORE, priority 2022, published 2026).
“Also recorded” adds a separate entry of the source.

What was measured:
[1] = in vivo; cited from earlier work
[2] = system: male mice; test: Subthreshold social defeat stress (SSDS) followed by social interaction test; assay type: in vivo, mouse
Description: (§1) Subthreshold social defeat stress: Retired CD1 breeders are singly housed and used as aggressors. Experimental mice are introduced to the home cage of an aggressor for 2 min to initiate the physical attack phase. Afterward, mice are transferred and housed on the opposite side of the aggressor, in the same cage separated by a perforated Plexiglass divider for 15 mins in order to maintain sensory contact. This process is repeated 3 times over a period of ~50 min.
(§2) Social Interaction: Mice are placed in a rectangular box (40 cm length×30 cm width×35 cm height; Stoelting, IL) divided into three compartments (two equal-sized end-chambers and a middle chamber) for five minute habituation phase (10-15 lux). After the habituation phase, two small wire cages are introduced into the two end chambers, one containing an unfamiliar, non-aggressive CD1 mouse and the other remaining empty. The amount of time mice spent sniffing each cage during the five-min test is assessed using CleverSys tracking software (CleverSys, Inc, Reston VA, USA).
(§3) For the chronic administration paradigms, silastic tubes (1.02 mm inner diameter×2.16 mm outer diameter) were filled with testosterone (10 mm) or 17β-Estradiol (E2; 1,3 and 10 mm; Sigma-Aldrich, St. Louis, MO, USA). Silastic implants were primed in 0.9% saline at 37° C. overnight prior to their subcutaneous use. Letrozole (1 mg/kg/day; Sigma-Aldrich, St. Louis, MO, USA) was dissolved in propylene glycol (MP Biomedicals, Santa Ana, CA, USA) and administered through ALZET minipumps (Model 1002, 0.25 μl/hour, 14 days; Cupertino, CA, USA). DHED (synthesized using previously described methods) was dissolved in 0.9% saline and administered through ALZET minipumps (Model 1002, 0.25 μl/hour, 14 days; Cupertino, CA, USA) at a dose of […]. Flutamide was administered through 1.5 mg slow-release subcutaneous pellets (Innovative Research of America, Sarasota, FL, USA). For acute administration, 17β-Estradiol (E2; 10 and […]) was dissolved in sesame oil (4 ml/kg, s.c.; Sigma-Aldrich, St. Louis, MO, USA).
(§4) Retired CD1 breeders were singly housed and used as aggressors. Two days prior to the start of the experiment, experimental mice were also singly housed. The stress procedure was performed using previously described methods. Briefly, experimental mice were introduced to the home cage of an aggressor for 2 min to initiate the physical attack phase. Afterward, mice were transferred and housed on the opposite side of the aggressor, in the same cage separated by a perforated Plexiglass divider for 15 mins in order to maintain sensory contact. This process was repeated 3 times over a period of ~50 min. Following the completion of the third cycle, mice were placed back in their home cages.
(§5) Acute E2 was administered 45 min prior to the initiation of stress or 5 min after the completion of stress. For the optogenetic stimulation, ChR2 and YFP-injected mice received a 4 Hz, 5 ms pulse width, 10-15 mW 470 nm light stimulation for 45 min prior to the initiation of stress. This stimulation paradigm was shown previously to increase synaptic transmission. The optogenetic set up consisted of an LED driver paired with a fiber-coupled LED light source attached to a bifurcated optogenetic path cable (400 μm, 0.49 NA; ThorLabs, Newton NJ, USA).
as §2, with “Social interaction was performed 24 hours following subthreshold social defeat or inescapable foot-shock stress. For the habituation phase, mice were” for “Social Interaction: Mice are”, “five minutes” for “five minute habituation phase”, “cages were” for “cages are”, “test was” for “test is”

[3] = system: rodents; conditions: high doses administered orally to rodents; cited from earlier work
[4] = in vivo; conditions: male, C57BL/6J, mouse
Description: Although these findings support a critical role for E2, and not testosterone itself, as the biologically active hormone mediating stress susceptibility in hypogonadal male mice, E2 replacement therapy cannot be considered as a viable treatment in human male veteran populations due to its peripheral side effects, including gynecomastia and erectile dysfunction. However, isolating the effects of E2 to the central nervous system would provide a viable therapy. […] As a next step in advancing this treatment, the oral bioavailability of DHED was assessed, comparing oral versus intravenous delivery routes.
Pharmacokinetic (PK) assessment of prodrugs. […] Generally, this PK study and analysis proceeds similarly to previous studies aimed at assessing the oral bioavailability of (2R,6R)-HNK. […] PK is performed using tandem liquid chromatography-mass spectrometry (LC-MS/MS) for quantification. […] Statistical significance is calculated using the unpaired t-test or Mann-Whitney U test for comparing AUC values. […] E2 levels are measured with liquid chromatography tandem mass spectrometry (LC-MS/MS) using standard methods. […] If levels of E2 are too low to be quantified via this measure, and to distinguish naturally-produced from DHED prodrug-produced E2, E2 levels can be quantitated at the femtomole level utilizing deuterium-labelled E2 standards and triple quadrupole mass spectrometry.

[5] = system: male mice; test: Subthreshold social defeat stress followed by female urine sniffing test (anhedonia); assay type: in vivo, mouse
Description: as §1
(§6) Female Urine Preference Test: is performed 24 hours after the social interaction test as using previously described methods. The amount of time mice spent interacting with a cotton-tipped applicator soaked in either fresh male or female mouse urine during a total of 3 minutes is analyzed by an experimenter blind to the experimental groups.
as §3, §4, §5
as §6, with “FUST procedure was” for “Female Urine Preference Test: is”, “and 48 hours after stress. FUST was performed” for “as”, “was” for “is”

[6] = Body, testis and seminal vesicle weights after hormonal treatments; assay type: in vivo, mouse
Description: as §3
Subcutaneous implantations were performed during the same time as the orchiectomies. The surgical area was thoroughly cleaned with Betadine solution (10% povidone-iodine surgical scrub) followed by 70% ethanol. A small, approximately 1-cm incision was made between the scapulae using a pair of small sterile surgical scissors. Hemostats were then inserted and spread laterally to the incision to create a cavity in the subcutaneous space in which ALZET mini-osmotic pumps or silastic implants were inserted for continuous drug/vehicle delivery. The skin was closed with suturing.

[7] = system: C3 expression; conditions: rat, in vivo; cited from earlier work
[8] = system: estrogen or other hormone receptors; conditions: cited from earlier work
[9] = system: galanin expression; conditions: rat, in vivo; cited from earlier work
[10] = system: progesterone receptor (PR) expression; conditions: rat, in vivo; cited from earlier work
[11] = system: optically-induced postsynaptic currents (oPSC) in the NAc; test: Whole-cell patch clamp of optically-induced postsynaptic currents in NAc slices; parameters: species or system mouse; conditions: bath applied NBQX and APV together
Description: Mice (n=3 males) that were previously injected with ChR2 in the BLA were deeply anesthetized with isoflurane before decapitation and brain extraction. Coronal 250 μm thick sections were collected in ice cold 95% oxygen, 5% carbon dioxide-bubbled modified artificial cerebrospinal fluid (aCSF, 194 mM sucrose, 30 mM NaCl, 4.5 mM KCl, 1 mM MgCl2, 26 mM NaHCO3, 1.2 mM NaH2PO4, and 10 mM D-glucose) before incubating at 32° C. for 30 min in aCSF (124 mM NaCl, 4.5 mM KCl, 2 mM CaCl2), 1 mM MgCl2, 26 mM NaHCO3, 1.2 mM NaH2PO4, and 10 mM D-glucose). Slices were then stored at room temperature until recording.
Slices were hemisected, placed into a recording chamber, and perfused with temperature controlled aCSF (29-31° C.). NAc medium spiny neurons (MSNs) were visualized using infrared differential interference contrast light microscopy, Q-capture camera, and associated Pro 7 software. […] Optically evoked post synaptic currents (oPSC) were elicited by an optical fiber placed in the recording chamber that delivered 4 ms pulses of light (473 nm) every 20s for a total recording duration of 15 min. oPSCs were recorded using borosilicate glass pipettes (2-4 MΩ resistance) filled with Cesium Methanesulfonate internal solution (135 mM cesium methanesulfonate, 3 mM NaCl, 10 mM HEPES, 0.6 mM EGTA, 4 mM MgATP, 0.3 mM NaGTP, 5 mM QX-314C1, pH 7.2, 310 mOsm). […]

[12] = Pharmacokinetic assessment of the DHED-acetate prodrug, IV and PO; assay type: in vivo, mouse
Description: FIGS. 29A-29B illustrate the pharmacokinetic assessment of the DHED-acetate prodrug. The concentration levels of the DHED-acetate prodrug (FIG. 29A) and DHED (FIG. 29B) were measured in mice (n=3) after IV and PO administration of 5 mg/kg solution dose of DHED-acetate prodrug.
Pharmacokinetic (PK) assessment of prodrugs. […] Generally, this PK study and analysis proceeds similarly to previous studies aimed at assessing the oral bioavailability of (2R,6R)-HNK. As in previous data with DHED (FIGS. 6A-6B), male C57BL/6J mice (n=6/time point) receive 200 μg of prodrug in 0.9% (20% cyclodextrin) administered either IV or PO. Plasma and brain are collected at 5 min, 15 min, 30 min, 1 h, and 4 h after administration. PK is performed using tandem liquid chromatography-mass spectrometry (LC-MS/MS) for quantification. Pharmacokinetic analysis is performed using Phoenix WinNonLin. Non-compartmental analysis is performed to determine the following parameters: C0 (Back-extrapolated concentration at time 0); Cmax (Maximum observed concentration); Tmax (time of maximum observed concentration); AUC0-t (Area under the concentration-time curve from hour 0 to the last measurable concentration, estimated by the linear trapezoidal rule). Statistical significance is calculated using the unpaired t-test or Mann-Whitney U test for comparing AUC values. Importantly, pharmacokinetic measurements observe both the level of the prodrug and free DHED moiety in the plasma. A critical comparison is measuring the DHED levels after administration of the prodrug compared to after administration of DHED itself. […] E2 levels are measured with liquid chromatography tandem mass spectrometry (LC-MS/MS) using standard methods. […] If levels of E2 are too low to be quantified via this measure, and to distinguish naturally-produced from DHED prodrug-produced E2, E2 levels can be quantitated at the femtomole level utilizing deuterium-labelled E2 standards and triple quadrupole mass spectrometry.

[13] = chronic treatment (silastic implant or minipump), orchiectomized male mice + SSDS
[14] = chronic treatment, gonadally intact male mice + SSDS

Q: With `CCCCCCCCCC(=O)O[C@H]1CC[C@H]2[C@@H]3CCC4=CC(=O)CC[C@]4(C)[C@H]3CC[C@]12C` [Testosterone-decanoate] as the compound, how does the “oral bioavailability of testosterone” value [1] read?
A: substantially enhance the oral bioavailability

Q: With `C[C@]12CC[C@H]3[C@@H](CCC4=CC(=O)C=C[C@@]43O)[C@@H]1CC[C@@H]2O` [DHED, 10β,17β-dihydroxyestra-1,4-dien-3-one] as the compound, how does the “stress-induced social interaction deficits” value [2, 13] read?
A: reversed the social interaction and hedonic deficits

Q: What about the “efficacy in models of hot flushes” value [3] of the same compound?
A: E2-like efficacy

Q: And the bioavailability ([4]; oral bioavailability measured in brain)?
A: < 2%

Q: What about the bioavailability ([4]; oral bioavailability measured in plasma) of the same compound?
A: 10%

Q: What about the stress-induced anhedonia [5, 13] of the same compound?
A: reversed the social interaction and hedonic deficits

Q: What about the body weight ([6]; chronic treatment) of the same compound?
A: did not increase; also recorded: no difference

Q: And the seminal vesicle weight ([6]; chronic treatment)?
A: did not increase; also recorded: no difference

Q: What about the “relative seminal vesicle weights” value ([6]; s.c. treatment, compared to vehicle (saline) control) of the same compound?
A: unaffected

Q: And the “uterus C3 expression” value [7]?
A: does not change

Q: What about the “effects on estrogen or other hormone receptors throughout the body” value [8] of the same compound?
A: no effects on estrogen or other hormone receptors

Q: And the pituitary galanin expression [9]?
A: does not change

Q: And the “medial preoptic area PR expression” value [10]?
A: increases medial preoptic area PR expression

Q: With `NS(=O)(=O)c1cccc2c1c([N+](=O)[O-])cc1nc(O)c(O)nc12` [NBQX] as the compound, how does the “oPSCs in NAc of ERβ-cre mice with ChR2 in the BLA” value [11] read?
A: blocked

Q: Which “oral bioavailability of testosterone” value [1] does the source give for `C[C@]12CC[C@H]3[C@@H](CCC4=CC(=O)CC[C@@]43C)[C@@H]1CC[C@@H]2OC(=O)[C@@H]1CCCN1C(=O)c1ccc(S(N)(=O)=O)cn1` [EC586] here?
A: substantially enhance the oral bioavailability

Q: For `CC(=O)O[C@H]1CC[C@H]2[C@@H]3CCC4=CC(=O)C=C[C@]4(O)[C@H]3CC[C@]12C` [Example 1.1, (8S,9S,10S,13S,14S,17S)-10-hydroxy-13-methyl-3-oxo-6,7,8,9,10,11,12,13,14,15,16,17-dodecahydro-3H-cyclopenta[a]phenanthren-17-yl acetate], which “concentration level of the prodrug after IV administration” value ([12]; mice (n=3), 5 mg/kg solution dose, IV) is on record?
A: very rapidly metabolized

Q: And the “concentration level of the prodrug after PO administration” value ([12]; mice (n=3), 5 mg/kg solution dose, PO)?
A: cannot be detected

Q: And the “conversion of the prodrug into DHED” value ([12]; mice, 5 mg/kg, IV or PO)?
A: hydrolyzed into DHED

Q: With `N[C@@H](CCCP(=O)(O)O)C(=O)O` [APV] as the compound, how does the “oPSCs in NAc of ERβ-cre mice with ChR2 in the BLA” value [11] read?
A: blocked

Q: Which “social interaction deficits following stress” value [2, 14] does the source give for `N#Cc1ccc(C(c2ccc(C#N)cc2)n2cncn2)cc1` [letrozole, Letrozole] here?
A: deficits in social interaction

Q: And the anhedonia following stress [5, 14]?
A: induced a stress-susceptible phenotype

Q: And the body weight ([6]; chronic treatment)?
A: increased body weight

Q: What about the seminal vesicle weight ([6]; chronic treatment) of the same compound?
A: increased seminal vesicle weight

Q: And the testis weight ([6]; chronic treatment)?
A: no difference in testes weight
